US20050153870A1, “Medicinal composition for diagnosis, prevention, or therapy of multiple risk factor syndrome” (priority 2002, published 2005)

How the values were obtained:
DOCA hypertension rat = experiment: Periarteritis nodosa; type: in vivo; details: 50 mg/kg perorally, DOCA/saline administered rat having one of the kidneys excised out
Method: Rats having a cardiovascular disease due to hypertension, often develop periarteritis nodosa, which is typical blood-vessel inflammation caused in thin and small artery such as mesenteric artery. […] These are preventive effects. […] To explain more specifically, mineral corticoid is administered to rats having one of the kidneys excised out and raised for a month by giving saline as drinking water. After confirming onset of periarteritis nodosa, administration of mineral corticoid and saline is stopped and the rats are brought back under normal feeding conditions. As a result, the blood pressure of the rats gradually decreases near a normal value and periarteritis nodosa heals and disappears.

[1] = test system: patients with type II diabetes; experiment: Glucose tolerance test in Clinical test II; type: in vivo, human; details: 50 g of glucose perorally at fasting; after therapy of 12 weeks vs before; 30 patients
Method: A glucose tolerance test were performed by perorally taking 50 g of glucose at fasting time in the early morning and measuring concentrations of blood sugar and urine sugar with time. A solid line represents the results immediately before therapy and a broken line represents immediately after the therapy of 12 weeks. Since a process of a glucose tolerance test more or less varied depending upon medical institutions, data of all patients (30 patients) with type II diabetes participated in this test in a single and the same institution are statistically analyzed and shown. […] Note that, in the FIGS. 2 and 3, numerical values each represent average value±standard deviation.

Rat = experiment: Glucogenesis in the liver; type: in vivo; details: perorally
Text: Compounds of this series suppresses hepatic glucogenesis which is induced by administration of dexamethazon to a rat. For this reason, it antagonizes the action of glucocorticoid in vivo. The compound further has an effect of suppressing steroid diabetes characterized by polydipsia and polyurea and urine sugar excretion induced by administering cortisol to a rat. […] These facts strongly support that compounds of this series is useful in preventing and/or treating visceral fat syndrome.

## COc1c(Cl)c(C)c(C=O)c(O)c1C/C=C(C)/C=C/[C@@]1(C)[C@H](C)CCC(=O)[C@@H]1C [4-O-methylascochlorin]
DOCA hypertension rat
  Periarteritis nodosa: significantly suppressed. When ascofuranone is perorally administered to SHR of a
[1]
  blood sugar level in glucose tolerance test (FIG. 2): significantly decreases blood sugar level
  urine sugar level in glucose tolerance test (FIG. 3): significantly decreases the concentration of glucose contained in the urine
Rat
  glucogenesis performed in the liver: performed in the liver is suppressed.
